What was measured:
[1] = molecular target: T1, Polyunsaturated fatty acid 5-lipoxygenase (Homo sapiens, UniProt P09917); assay: Inhibition of 5-LOX (unknown origin)
T1 sequence (P09917 whole entry): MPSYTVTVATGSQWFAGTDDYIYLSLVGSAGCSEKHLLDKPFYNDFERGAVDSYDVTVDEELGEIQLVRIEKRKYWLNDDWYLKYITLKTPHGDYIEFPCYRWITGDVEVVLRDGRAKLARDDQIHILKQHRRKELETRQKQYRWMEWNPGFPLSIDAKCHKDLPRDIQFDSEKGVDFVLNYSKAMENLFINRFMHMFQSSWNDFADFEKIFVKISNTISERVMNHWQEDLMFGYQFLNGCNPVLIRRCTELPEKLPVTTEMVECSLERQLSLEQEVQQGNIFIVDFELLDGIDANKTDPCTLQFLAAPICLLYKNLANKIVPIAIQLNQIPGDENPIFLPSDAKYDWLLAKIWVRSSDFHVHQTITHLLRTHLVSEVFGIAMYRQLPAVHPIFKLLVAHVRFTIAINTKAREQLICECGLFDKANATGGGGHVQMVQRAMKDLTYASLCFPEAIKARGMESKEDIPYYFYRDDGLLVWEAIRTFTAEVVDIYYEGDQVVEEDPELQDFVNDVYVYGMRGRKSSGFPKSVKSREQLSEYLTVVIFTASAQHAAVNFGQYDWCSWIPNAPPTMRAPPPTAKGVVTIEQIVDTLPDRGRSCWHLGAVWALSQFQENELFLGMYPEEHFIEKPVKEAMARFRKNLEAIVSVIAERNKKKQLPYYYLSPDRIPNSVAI

[2] = molecular target: Prostaglandin G/H synthase 2
[3] = molecular target: Transient receptor potential cation channel subfamily V member 1 (Homo sapiens, UniProt Q8NER1); assay: Inhibition of TRPV1 (unknown origin)
Chain of Transient receptor potential cation channel subfamily V member 1 (Q8NER1 whole entry): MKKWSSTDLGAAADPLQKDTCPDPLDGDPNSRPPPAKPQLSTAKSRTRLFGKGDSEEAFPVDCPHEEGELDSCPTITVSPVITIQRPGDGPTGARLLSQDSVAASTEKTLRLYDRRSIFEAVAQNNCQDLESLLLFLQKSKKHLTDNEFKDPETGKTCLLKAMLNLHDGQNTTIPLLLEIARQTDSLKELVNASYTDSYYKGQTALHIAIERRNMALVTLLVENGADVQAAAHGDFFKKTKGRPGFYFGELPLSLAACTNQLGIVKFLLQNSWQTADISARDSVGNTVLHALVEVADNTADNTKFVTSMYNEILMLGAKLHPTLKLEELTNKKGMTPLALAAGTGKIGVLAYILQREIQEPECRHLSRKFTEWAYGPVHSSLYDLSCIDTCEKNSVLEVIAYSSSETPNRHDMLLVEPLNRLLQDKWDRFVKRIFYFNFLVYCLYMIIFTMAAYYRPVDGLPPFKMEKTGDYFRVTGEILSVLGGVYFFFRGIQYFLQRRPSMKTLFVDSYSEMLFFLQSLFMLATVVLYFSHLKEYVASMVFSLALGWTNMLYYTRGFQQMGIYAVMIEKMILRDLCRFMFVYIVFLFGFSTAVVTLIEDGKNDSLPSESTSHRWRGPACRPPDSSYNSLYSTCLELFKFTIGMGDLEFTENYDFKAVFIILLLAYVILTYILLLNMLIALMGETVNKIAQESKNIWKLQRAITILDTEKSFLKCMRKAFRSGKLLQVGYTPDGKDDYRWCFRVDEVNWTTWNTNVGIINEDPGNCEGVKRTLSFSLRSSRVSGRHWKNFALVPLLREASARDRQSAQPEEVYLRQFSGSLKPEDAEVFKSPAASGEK

[4] = organism: Mus musculus; assay: Analgesic activity in formalin-induced mouse pain model assessed as reduction in immediate response by measuring licking time; type: functional
[5] = Apparent clearance in Sprague-Dawley rat at 1 mg/kg, iv; type: ADME, organism-based; conditions: in vivo
[6] = organism: Mus musculus; assay: Analgesic activity in formalin-induced mouse pain model assessed as time consumed for nociceptive behavior by measuring licking time; type: functional
[7] = Tmax in Sprague-Dawley rat at 10 mg/kg, IG; type: ADME, organism-based; conditions: in vivo, po
[8] = Bioavailability in Sprague-Dawley rat at 1 mg/kg, iv; type: ADME, organism-based; conditions: in vivo
[9] = Cmax in Sprague-Dawley rat at 10 mg/kg, IG; type: ADME, organism-based; set-up: dose 10 mg/kg, route ig; conditions: in vivo, po
[10] = test system: Mus musculus; assay: Antiinflammatory activity against capsaicin-induced mouse ear edema model assessed as decrease in ear thickness at 20 mg/kg relative to control; type: functional

With `Cc1ccc(-c2cc(C(F)(F)F)nn2-c2ccc(S(=O)(=O)NC(=O)CCCCC3CCSS3)cc2)cc1` (stereo unspecified) the IC50 [1] was 1420 nM, the IC50 [2] was 370 nM and the IC50 [3] was over 10000 nM.

Work on `Cc1ccc(-c2cc(C(F)(F)F)nn2-c2ccc(S(=O)(=O)NC(=O)C(C)c3ccc(CC(C)C)cc3)cc2)cc1` (stereo unspecified) yielded an IC50 [1] of 520 nM, an IC50 [2] of 25 nM and an IC50 [3] of 1030 nM.

`Cc1ccc(-c2cc(C(F)(F)F)nn2-c2ccc(S(=O)(=O)NC(=O)c3ccccc3)cc2)cc1` showed an IC50 [1] of 120 nM and an IC50 [2] of 76 nM.

`COc1cc(C(=O)[N-]S(=O)(=O)c2ccc(-n3nc(C(F)(F)F)cc3-c3ccc(C)cc3)cc2)ccc1[O-].[Na+].[Na+]` showed a Time [4] of 0 min, a clearance [5] of 3.24 mL/min/kg and a Time [6] of 85.5 s. The Tmax [7] was 4.5 h, the IC50 [1] was 460 nM and the IC50 [2] was 11 nM. The bioavailability [8] was 96.8% and the Cmax [9] was 5810 ng/mL.

In the case of `COc1cc(/C=C/C(=O)[N-]S(=O)(=O)c2ccc(-n3nc(C(F)(F)F)cc3-c3ccc(C)cc3)cc2)ccc1[O-].[Na+].[Na+]`, the clearance [5] is reported as 8.64 mL/min/kg, the IC50 [1] is reported as 310 nM and the IC50 [2] is reported as 23 nM. It also gave a bioavailability [8] of 13.3% and an IC50 [3] of 140 nM.

For `CCOC(=O)NS(=O)(=O)c1ccc(-n2nc(C(F)(F)F)cc2-c2ccc(C)cc2)cc1`, the IC50 [1] was 920 nM and the IC50 [2] was 35 nM.

Work on `Cc1ccc(-c2cc(C(F)(F)F)nn2-c2ccc(S(N)(=O)=O)cc2)cc1` [CELECOXIB] yielded an IC50 [1] of over 10000 nM, an inhibition in vivo at 20 mg/kg [10] of 48.8% and an IC50 [3] of over 10000 nM.
